Patent US10793544B2, “Disubstituted and trisubstituted 1,2,3-triazoles as Wnt inhibitors” (The Board of Regents of the University of Texas System, priority 2016, dated 2020)
One block for each compound: values may come before it.

Columns and labels:
[1] = system: Wnt/b-catenin pathway activity in L-Wnt-STF cells; assay: Suppression of Wnt signaling in L-Wnt-STF cells (Firefly luciferase reporter); format: cell-based
Experimental: Chemical synthesis is described below in Example 3. L-Wnt-STF cells (Chen, et al., 2009) were seeded into each well of a white opaque 96-well plate and compounds added immediately thereafter. Luciferase activities (Firefly luciferase for Wnt/b-catenin pathway activity and Renilla luciferase activity as an irrelevant cell signal) were measured using a previously reported protocol (Wang, et al., 2013).
Additional IWPs to suppress Wnt signaling in L-Wnt-STF cells were synthesized and tested for their ability to suppress Wnt signaling as described above. The relevant data for some of the compounds are shown below in Table 1.

LRP6 phosphorylation = assay: Western blot for biochemical markers of Wnt signaling in Hela cells: LRP6 phosphorylation; format: cell-based; details: incubated 24 h, Western blot (FIG. 2)
Source text: (§1) Cell lysates were then subjected to Western blot analysis for biochemical markers of Wnt signaling (LRP6 and Dvl2/3 phosphorylation).
(§2) Dishevelled (Dvl) phosphorylation is associated with both canonical and non-canonical Wnt signaling pathways.

Dvl2/3 phosphorylation = assay: Western blot for biochemical markers of Wnt signaling in Hela cells: Dvl2/3 phosphorylation; format: cell-based; details: incubated 24 h, Western blot (FIG. 2)
Source text: as §1, §2

Axin2 expression = details: DLD-1 cells, exposure for 2 h; cited from earlier work

EC50 ([1]; alternative substitution pattern of the triazole): 0.1 nM
SMILES: Cc1cc(-n2nnc(CC(=O)Nc3ccc(-c4ccccc4)cn3)c2-c2ccccc2)ccn1

SMILES: O=C(Cn1nnc(-c2ccncc2)c1-c1ccccc1)Nc1ccc(-c2ccccc2)cn1 [IWP-O1, 2-(5-Phenyl-4-(pyridin-4-yl)-1H-1,2,3-triazol-1-yl)-N-(5-phenylpyridin-2-yl)acetamide]
phosphorylation of LRP6 (LRP6 phosphorylation): suppressed
phosphorylation of Dvl2/3 (Dvl2/3 phosphorylation): effectively suppressed

SMILES: O=C(Nc1cccc2cccnc12)c1ccc(N2C(=O)[C@@H]3[C@H](C2=O)[C@@H]2C=C[C@H]3C2)cc1 [IWR-1]
expression of Axin2 (Axin2 expression): decrease

SMILES: Cc1cc(-c2ncc(CC(=O)Nc3ccc(-c4cnccn4)cn3)cc2C)ccn1 [LGK974, reference compound]
EC50 ([1]; Table 1 triazole substituent screening, L-Wnt-STF cells, normalized to LGK974 control): 0.2 nM
